Legend:
[1] = Oral bioavailability in CD1 mouse at 10 mg/kg; assay type: ADME, organism-based; details: in vivo
[2] = Half life in iv dosed CD1 mouse; assay type: ADME, organism-based; details: in vivo
[3] = AUC in CD1 mouse at 10 mg/kg, po; assay type: ADME, organism-based; parameters: dose 10 mg/kg, route oral; details: plasma
[4] = Cmax in CD1 mouse at 10 mg/kg, po; assay type: ADME, organism-based; parameters: dose 10 mg/kg, route oral; details: in vivo
[5] = Terminal phase volume of distribution in CD1 mouse; assay type: ADME, organism-based; details: in vivo, read-out: Vbeta
[6] = Clearance in CD1 mouse; assay type: ADME, organism-based; details: in vivo
[7] = AUC in CD1 mouse plasma at 30 mg/kg, po; assay type: ADME, organism-based; parameters: dose 30 mg/kg, route oral
[8] = AUC in CD1 mouse brain at 30 mg/kg, po; assay type: ADME, organism-based; parameters: dose 30 mg/kg, route oral
[9] = Ratio of drug level in plasma to brain of CD1 mouse
[10] = Oral bioavailability in Sprague-Dawley rat at 5 mg/kg; assay type: ADME, organism-based; details: in vivo
[11] = Half life in iv dosed Sprague-Dawley rat; assay type: ADME, organism-based; details: in vivo
[12] = AUC in Sprague-Dawley rat at 5 mg/kg, po; assay type: ADME, organism-based; parameters: dose 5 mg/kg, route oral; details: plasma
[13] = Cmax in Sprague-Dawley rat at 5 mg/kg, po; assay type: ADME, organism-based; parameters: dose 5 mg/kg, route oral; details: in vivo
[14] = Terminal phase volume of distribution in Sprague-Dawley rat; assay type: ADME, organism-based; details: in vivo, read-out: Vbeta
[15] = Clearance in Sprague-Dawley rat; assay type: ADME, organism-based; details: in vivo
[16] = Oral bioavailability in Beagle dog at […]; assay type: ADME, organism-based, Canis lupus familiaris; details: in vivo
[17] = Half life in iv dosed Beagle dog; assay type: ADME, organism-based, Canis lupus familiaris; details: in vivo
[18] = AUC in Beagle dog at […], po; assay type: ADME, organism-based, Canis lupus familiaris; parameters: dose 2.5 mg/kg, route oral; details: plasma
[19] = Cmax in Beagle dog at […], po; assay type: ADME, organism-based, Canis lupus familiaris; parameters: dose 2.5 mg/kg, route oral; details: in vivo
[20] = Terminal phase volume of distribution in Beagle dog; assay type: ADME, organism-based, Canis lupus familiaris; details: in vivo, read-out: Vbeta
[21] = Clearance in Beagle dog; assay type: ADME, organism-based, Canis lupus familiaris; details: in vivo
[22] = Oral bioavailability in cynomolgus monkey at […]; assay type: ADME, organism-based, Macaca fascicularis; details: in vivo
[23] = Half life in iv dosed cynomolgus monkey; assay type: ADME, organism-based, Macaca fascicularis; details: in vivo
[24] = AUC in cynomolgus monkey at […], po; assay type: ADME, organism-based, Macaca fascicularis; parameters: dose 2.5 mg/kg, route oral; details: plasma
[25] = Cmax in cynomolgus monkey at […], po; assay type: ADME, organism-based, Macaca fascicularis; parameters: dose 2.5 mg/kg, route oral; details: in vivo
[26] = Terminal phase volume of distribution in cynomolgus monkey; assay type: ADME, organism-based, Macaca fascicularis; details: in vivo, read-out: Vbeta
[27] = Clearance in cynomolgus monkey; assay type: ADME, organism-based, Macaca fascicularis; details: in vivo
[28] = Drug level in mouse B16F10 transplanted C57BL/6 mouse plasma at 25 mg/kg/day, po administered from day 6 to 10 post transplantation measured after 6 hrs of final dose; assay type: ADME, organism-based, C57BL6; parameters: route oral
[29] = Drug level in mouse B16F10 cells transplanted in C57BL/6 mouse at 25 mg/kg/day, po administered from day 6 to 10 post transplantation measured after 6 hrs of final dose; assay type: ADME, organism-based, C57BL6, B16-F10; parameters: route oral; details: B16F10 tumour (neoplasm)
[30] = Drug level in mouse B16F10 transplanted TMZ-treated C57BL/6 mouse plasma […] at 25 mg/kg/day, po administered from day 6 to 10 post transplantation measured after 6 hrs of final dose in presence of TMZ; assay type: ADME, organism-based, C57BL6; parameters: route oral

bioavailability [1]	half-life [2]	AUC [3]	Cmax [4]	Vd [5]	clearance [6]	AUC [7]	AUC [8]	Kp [9]	bioavailability [10]	half-life [11]	AUC [12]	Cmax [13]	Vd [14]	clearance [15]	bioavailability [16]	half-life [17]	AUC [18]	Cmax [19]	Vd [20]	SMILES	further results
36%	0.9 h	1000 ng·h/mL	500 ng/mL	4.6 L/kg	60 mL/min/kg	4200 ng·h/mL	1800 ng·h/mL	2	–	–	–	–	–	–	–	–	–	–	–	NC(=O)c1cccc2[nH]c(-c3ccc([C@H]4CCCN4)cc3F)nc12	–
63%	1.3 h	1700 ng·h/mL	500 ng/mL	6.6 L/kg	60 mL/min/kg	9900 ng·h/mL	9100 ng·h/mL	–	80%	4.5 h	1800 ng·h/mL	200 ng/mL	14 L/kg	38.3 mL/min/kg	39%	2 h	300 ng·h/mL	100 ng/mL	9.3 L/kg	NC(=O)c1cccc2[nH]c(-c3ccc([C@@H]4CCCCN4)cc3F)nc12	clearance [21]: 56.7 mL/min/kg; bioavailability [22]: 61%; half-life [23]: 5 h; AUC [24]: 750 ng·h/mL; Cmax [25]: 100 ng/mL; Vd [26]: 15 L/kg; clearance [27]: 36.7 mL/min/kg
36%	0.8 h	1200 ng·h/mL	600 ng/mL	3.3 L/kg	48.3 mL/min/kg	9800 ng·h/mL	4200 ng·h/mL	2	55%	1.9 h	1700 ng·h/mL	300 ng/mL	4.1 L/kg	28.3 mL/min/kg	72%	1.7 h	1100 ng·h/mL	500 ng/mL	3.6 L/kg	NC(=O)c1cccc2[nH]c(-c3ccc([C@@H]4CCCN4)cc3F)nc12	clearance [21]: 28.3 mL/min/kg; bioavailability [22]: 34%; half-life [23]: 1.8 h; AUC [24]: 200 ng·h/mL; Cmax [25]: 30 ng/mL; Vd [26]: 9.2 L/kg; clearance [27]: 68.3 mL/min/kg; concentration at 6 h [28]: 220 ng/mL; concentration at 6 h [29]: 17200 ng/mL; concentration at 6 h [30]: 380 ng/mL
100%	1.4 h	1600 ng·h/mL	300 ng/mL	15 L/kg	122 mL/min/kg	5800 ng·h/mL	6300 ng·h/mL	–	–	–	–	–	–	–	–	–	–	–	–	NC(=O)c1cccc2[nH]c(-c3ccc([C@H]4CCCCN4)cc3F)nc12	–
